Among the data in US11186577B2, “Vasopressin receptor antagonists and products and methods related thereto” (BlackThorn Therapeutics, Inc., priority 2017, dated 2021) are IC50 values, retold here.

Chain of human Arginine Vasopressin Receptor 1a (AVPR1a) (P37288 whole entry): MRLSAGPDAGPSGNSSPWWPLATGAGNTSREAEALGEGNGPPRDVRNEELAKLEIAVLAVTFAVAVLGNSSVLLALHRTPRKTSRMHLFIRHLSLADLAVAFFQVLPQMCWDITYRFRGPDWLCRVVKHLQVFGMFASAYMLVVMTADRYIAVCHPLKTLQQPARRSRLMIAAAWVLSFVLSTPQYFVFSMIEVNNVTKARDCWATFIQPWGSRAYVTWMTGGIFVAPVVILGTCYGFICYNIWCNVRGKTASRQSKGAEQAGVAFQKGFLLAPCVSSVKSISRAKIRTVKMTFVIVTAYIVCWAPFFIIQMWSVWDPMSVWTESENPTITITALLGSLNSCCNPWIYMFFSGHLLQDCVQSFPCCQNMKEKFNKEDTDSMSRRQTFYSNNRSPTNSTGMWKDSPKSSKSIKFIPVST

One experiment addresses human Arginine Vasopressin Receptor 1a (AVPR1a) (Homo sapiens (Human), UniProt P37288). The experiment can be described thus: Vasopressin V1A receptor antagonist assay (AVP-evoked calcium, FLIPR, CHO-AVPR1a cells). In kind it is cell-based.
Conditions: not given
The method, then: The purpose of this assay was to determine the inhibitory effect of synthesized compounds on the Vasopressin V1a receptor. The assay as performed in Chinese Hamster Ovary (CHO) cells expressing the human Arginine Vasopressin Receptor 1a (AVPR1a). Arginine Vasopressin (AVP) evokes an increase in intracellular calcium in CHO-AVPR1a cells which is measured in a fluorescence assay on the FLIPR^TETRA using calcium sensitive dyes. Test compounds were assessed for their ability to affect the magnitude of the response to AVP, with antagonists showing a concentration-dependent reduction in the AVP-mediated fluorescence. Compounds were tested in duplicate in a 10-point, 1:3 dilution series starting at a nominal concentration of 3 μM in the assay.
CHO-AVPR1a cells were maintained in routine culture in T175 Flasks at 37° C., 5% CO2. The growth medium consists of Ham's F12 media supplemented with 10% v/v fetal bovine serum, 1× non-essential amino acids, and 0.4 mg/ml Geneticin G418.
On day one, cells were harvested from T175 flasks when they are 80-90% confluent by first washing the cell monolayer with PBS and then dissociated using trypsin 0.05%/EDTA (3 mL for a T175 Flask). The flasks were incubated at room temperature until the cells detached. To the cell suspension, 10 ml of growth media was added and the cell density determined using the Vi-Cell automated cell counter. The cells were spun at 1000 rpm for 3 minutes, then the supernatant was carefully removed and discarded. The cell pellet was re-suspended at 6.0e^5 cells/ml in growth media. 25 μL of cells in growth media was dispensed into each well (15,000 cells per well) of a poly-D-lysine coated black, clear bottomed, 384-well plate. The plates were incubated at 37° C., 5% CO2 overnight.
At the start of each assay day, the potency of AVP was assessed and an EC80 concentration determined for subsequent compound profiling. Assays were performed using a two-step addition protocol on the FLIPR^TETRA; first addition of 5 μl of control or test compound at 10× final in assay buffer with 15 min incubation at 37° C., 5% CO2 followed by 10 μl of AVP at 6× final concentration in assay buffer. […] The assay buffer consisted of HBSS (+Ca/+Mg) supplemented with 20 mM HEPES, and for the preparation of the AVP agonist only, 0.1% w/v bovine serum albumin. The assay was initiated by the removal of growth media from the cells and replacement with 45 μl of Calcium-6 dye (Molecular Devices) prepared at 1× in assay buffer. Cells are loaded with dye for 60-90 min at 37° C., 5% CO2 before initiation of the FLIPR^TETRA protocol. […] At the end of the incubation period, 10 μl of AVP in assay buffer containing 0.1% BSA was added at the previously determined EC80 concentration.
A word on the IC50: it is the concentration that gives 50% inhibition. Consider `COC(=O)N1Cc2cc(Cl)ccc2-n2c(nnc2C2CC3(C2)CN(c2ccncn2)C3)C1` [compound 186], for which the half-inhibitory concentration (IC50) lay within 100 to 500 nM.

Regarding `O=C1OCC2c3nnc(C4CC5(C4)CN(c4ncccn4)C5)n3-c3ccc(Cl)cc3CN12` (stereo not shown) [compound 198], the 50% inhibitory concentration (IC50) lay in the range of 100 to 500 nM.

Take `CN1Cc2cc(Cl)ccc2-n2c(nnc2C2CC3(C2)CN(c2nn(C)c4ncccc24)C3)C1` [compound 231]: the IC50 was 100 to 500 nM.

Turning to `Cc1cnc(N2CC3(CC(c4nnc5n4-c4ccc(Cl)cc4CN(C4CC4)C5)C3)C2)nc1` [compound 234], the IC50 lay within 100 to 500 nM.

Take `Cc1cnc(N2CC3(CC(c4nnc5n4-c4ccc(Cl)cc4CN(C)C5)C3)C2)nc1` [compound 239]: the IC50 lay within 100 to 500 nM.

For `CN1Cc2cc(Cl)ccc2-n2c(nnc2C2CC3(C2)CN(c2ccncn2)C3)C1` [compound 243], the half-inhibitory concentration (IC50) was 100 to 500 nM.

In the case of `Cc1cncnc1N1CC2(CC(c3nnc4n3-c3ccc(Cl)cc3CN(C)C4)C2)C1` [compound 251], the IC50 fell in the range of 100 to 500 nM.

With `Cc1cnc(N2CC3(CC(c4nnc5n4-c4ccc(Cl)cc4CN(C4(C)CC4)C5)C3)C2)nc1` [compound 253], the IC50 is 100 to 500 nM.

With `CC1(N2Cc3cc(Cl)ccc3-n3c(nnc3C3CC4(C3)CN(c3ccncn3)C4)C2)CC1` [compound 254], the half-inhibitory concentration (IC50) lay within 100 to 500 nM.

In the case of `CN1Cc2cc(Cl)ccc2-n2c(nnc2C2CC3(C2)CN(c2nccc4c2ncn4C)C3)C1` [compound 257], the IC50 was 500 to 1000 nM.

`Cc1ccc(N2CC3(CC(c4nnc5n4-c4ccc(Cl)cc4CN(C4(C)CC4)C5)C3)C2)nc1` [compound 265]: the IC50 lay within 100 to 500 nM.

For the compound `Cc1nc(N2CC3(CC(c4nnc5n4-c4ccc(Cl)cc4CN(C)C5)C3)C2)no1` [compound 266, 3-(6-(8-chloro-5-methyl-5,6-dihydro-4H-benzo[f][1,2,4]triazolo[4,3-a][1,4]diazepin-1-yl)-2-azaspiro[3.3]heptan-2-yl)-5-methyl-1,2,4-oxadiazole], the half-maximal inhibitory concentration (IC50) lay in the range of 500 to 1000 nM.

As to `Cc1nc(N2CC3(CC(c4nnc5n4-c4ccc(Cl)cc4CN(C4CC4)C5)C3)C2)no1` [compound 268, 3-(6-(8-chloro-5-cyclopropyl-5,6-dihydro-4H-benzo[f][1,2,4]triazolo[4,3-a][1,4]diazepin-1-yl)-2-azaspiro[3.3]heptan-2-yl)-5-methyl-1,2,4-oxadiazole], the IC50 was 100 to 500 nM.

Still in this experiment, the particulars now being: read-out: V1a IC50.
As to `CC1c2nnc(C3CC4(C3)CN(c3ccccn3)C4)n2-c2ccc(Cl)cc2CN1C(=O)C1(F)CC1` (stereo not shown) [compound 181], the half-maximal inhibitory concentration (IC50) is under 100 nM.

Regarding `COC(=O)N1Cc2cc(Cl)ccc2-n2c(C3CC4(C3)CN(c3ccncn3)C4)nnc2C1C` (stereo not shown) [compound 184, methyl 8-chloro-4-methyl-1-(2-(pyrimidin-4-yl)-2-azaspiro[3.3]heptan-6-yl)-4H-benzo[f][1,2,4]triazolo[4,3-a][1,4]diazepine-5(6H)-carboxylate], the IC50 was in the range of 100 to 500 nM.

In the case of `CCOC(=O)N1Cc2cc(Cl)ccc2-n2c(C3CC4(C3)CN(c3nccc(C(F)(F)F)n3)C4)nnc2C1C` (stereo not shown) [compound 190], the IC50 was under 100 nM.

As to `Cc1ccnc(N2CC3(CC(c4nnc5n4-c4ccc(Cl)cc4CN(C4CC4)C5)C3)C2)c1` [compound 217, 8-chloro-5-cyclopropyl-1-(2-(4-methylpyridin-2-yl)-2-azaspiro[3.3]heptan-6-yl)-5,6-dihydro-4H-benzo[f][1,2,4]triazolo[4,3-a][1,4]diazepine], the IC50 is under 100 nM.

As to `Clc1ccc2c(c1)CN(C1CC1)Cc1nnc(C3CC4(C3)CN(c3cnccn3)C4)n1-2` [compound 219], the 50% inhibitory concentration (IC50) was under 100 nM.

Regarding `Cc1cncc(N2CC3(CC(c4nnc5n4-c4ccc(Cl)cc4CN(C4CC4)C5)C3)C2)n1` [compound 221], the IC50 is under 100 nM.

For `Cc1nccnc1N1CC2(CC(c3nnc4n3-c3ccc(Cl)cc3CN(C3CC3)C4)C2)C1` [compound 222], the IC50 is under 100 nM.

Take `Cc1ccc(N2CC3(CC(c4nnc5n4-c4ccc(Cl)cc4CN(C4CC4)C5)C3)C2)nc1` [compound 227]: the half-maximal inhibitory concentration (IC50) was under 100 nM.

In the case of `N#Cc1cccc(N2CC3(CC(c4nnc5n4-c4ccc(Cl)cc4CN(C4CC4)C5)C3)C2)n1` [compound 228], the 50% inhibitory concentration (IC50) was under 100 nM.

As for `N#Cc1ccnc(N2CC3(CC(c4nnc5n4-c4ccc(Cl)cc4CN(C4CC4)C5)C3)C2)c1` [compound 232], the 50% inhibitory concentration (IC50) was under 100 nM.

Turning to `Clc1ccc2c(c1)CN(C1CC1)Cc1nnc(C3CC4(C3)CN(c3ccncn3)C4)n1-2` [compound 233], the IC50 was under 100 nM.

`Cc1cc(N2CC3(CC(c4nnc5n4-c4ccc(Cl)cc4CN(C4CC4)C5)C3)C2)ncc1F` [compound 235]: the concentration for half-maximal inhibition (IC50) is under 100 nM.

`CN1Cc2cc(Cl)ccc2-n2c(nnc2C2CC3(C2)CN(c2ncc(F)cn2)C3)C1` [compound 236, 8-chloro-5-methyl-1-(2-(5-fluoropyrimidin-2-yl)-2-azaspiro[3.3]heptan-6-yl)-5,6-dihydro-4H-benzo[f][1,2,4]triazolo[4,3-a][1,4]diazepine]: the 50% inhibitory concentration (IC50) is under 100 nM.

Consider `Cc1cncc(N2CC3(CC(c4nnc5n4-c4ccc(Cl)cc4CN(C)C5)C3)C2)n1` [compound 237], for which the IC50 is under 100 nM.

For `CN1Cc2cc(Cl)ccc2-n2c(nnc2C2CC3(C2)CN(c2ncncc2F)C3)C1` [compound 238], the half-inhibitory concentration (IC50) is under 100 nM.

For the compound `Cc1nc(N2CC3(CC(c4nnc5n4-c4ccc(Cl)cc4CN(C)C5)C3)C2)ncc1F` [compound 240], the IC50 was under 100 nM.

Regarding `Cc1ccnc(N2CC3(CC(c4nnc5n4-c4ccc(Cl)cc4CN(C)C5)C3)C2)c1` [compound 241, 8-chloro-5-methyl-1-(2-(4-methylpyridin-2-yl)-2-azaspiro[3.3]heptan-6-yl)-5,6-dihydro-4H-benzo[f][1,2,4]triazolo[4,3-a][1,4]diazepine], the IC50 was under 100 nM.

For `Cc1nccnc1N1CC2(CC(c3nnc4n3-c3ccc(Cl)cc3CN(C3(C)CC3)C4)C2)C1` [compound 244], the half-maximal inhibitory concentration (IC50) is under 100 nM.

For `Cc1cc(N2CC3(CC(c4nnc5n4-c4ccc(Cl)cc4CN(C4(C)CC4)C5)C3)C2)ncc1F` [compound 245], the concentration for half-maximal inhibition (IC50) was under 100 nM.

In the case of `O=C(NC1CC1)N1Cc2cc(Cl)ccc2-n2c(nnc2C2CC3(C2)CN(c2ccc(F)cn2)C3)C1` [compound 246, 8-chloro-N-cyclopropyl-1-(2-(5-fluoropyridin-2-yl)-2-azaspiro[3.3]heptan-6-yl)-4H-benzo[f][1,2,4]triazolo[4,3-a][1,4]diazepine-5(6H)-carboxamide], the IC50 was under 100 nM.

Regarding `Fc1cncnc1N1CC2(CC(c3nnc4n3-c3ccc(Cl)cc3CN(C3CC3)C4)C2)C1` [compound 247], the IC50 is under 100 nM.

For `N#Cc1ccnc(N2CC3(CC(c4nnc5n4-c4ccc(Cl)cc4CN(C4CC4)C5)C3)C2)n1` [compound 248], the IC50 was under 100 nM.

Consider `COc1cc(N2CC3(CC(c4nnc5n4-c4ccc(Cl)cc4CN(C4CC4)C5)C3)C2)ncc1F` [compound 249], for which the half-maximal inhibitory concentration (IC50) was under 100 nM.

For `Cn1nc(N2CC3(CC(c4nnc5n4-c4ccc(Cl)cc4CN(C4CC4)C5)C3)C2)c2cccnc21` [compound 250], the half-inhibitory concentration (IC50) is under 100 nM.

Consider `Cc1cc(N2CC3(CC(c4nnc5n4-c4ccc(Cl)cc4CN(C)C5)C3)C2)ncc1F` [compound 252], for which the IC50 is under 100 nM.

Take `CN1Cc2cc(Cl)ccc2-n2c(nnc2C2CC3(C2)CN(c2noc4ccccc24)C3)C1` [compound 256]: the IC50 is under 100 nM.

Consider `CN1Cc2cc(Cl)ccc2-n2c(nnc2C2CC3(C2)CN(c2nc4cnccc4n2C)C3)C1` [compound 258], for which the half-inhibitory concentration (IC50) is over 1000 nM.

As for `Cc1nc(N2CC3(CC(c4nnc5n4-c4ccc(Cl)cc4CN(C4(C)CC4)C5)C3)C2)ccc1F` [compound 260], the half-maximal inhibitory concentration (IC50) was under 100 nM.

As for `CC1(N2Cc3cc(Cl)ccc3-n3c(nnc3C3CC4(C3)CN(c3ncc(F)cn3)C4)C2)CC1` [compound 261], the half-inhibitory concentration (IC50) was under 100 nM.

In the case of `CC1(N2Cc3cc(Cl)ccc3-n3c(nnc3C3CC4(C3)CN(c3cccc(C#N)n3)C4)C2)CC1` [compound 262], the half-maximal inhibitory concentration (IC50) is under 100 nM.

Regarding `CC1(N2Cc3cc(Cl)ccc3-n3c(nnc3C3CC4(C3)CN(c3nccc(C#N)n3)C4)C2)CC1` [compound 263], the IC50 is under 100 nM.

Regarding `CC1(N2Cc3cc(Cl)ccc3-n3c(nnc3C3CC4(C3)CN(c3ncccn3)C4)C2)CC1` [compound 264], the IC50 is under 100 nM.

For the compound `CN1Cc2cc(Cl)ccc2-n2c(nnc2C2CC3(C2)CN(c2noc(C4CC4)n2)C3)C1` [compound 267], the IC50 was over 1000 nM.
